This note sets out measurements from patent US12384770B2, “Heterocyclic compound” (Takeda Pharmaceutical Company Limited, priority 2019, dated 2025).

The target in the first assay is T1, HDAC6 enzyme (Homo sapiens, UniProt Q9UBN7).
T1 construct: HDAC6 enzyme prepared by transducing full length HDAC6 gene into Sf-9 insect cells; GST; purchased SignalChem; host or cells: Sf-9 insect cells
T1 sequence (Q9UBN7 1-1215): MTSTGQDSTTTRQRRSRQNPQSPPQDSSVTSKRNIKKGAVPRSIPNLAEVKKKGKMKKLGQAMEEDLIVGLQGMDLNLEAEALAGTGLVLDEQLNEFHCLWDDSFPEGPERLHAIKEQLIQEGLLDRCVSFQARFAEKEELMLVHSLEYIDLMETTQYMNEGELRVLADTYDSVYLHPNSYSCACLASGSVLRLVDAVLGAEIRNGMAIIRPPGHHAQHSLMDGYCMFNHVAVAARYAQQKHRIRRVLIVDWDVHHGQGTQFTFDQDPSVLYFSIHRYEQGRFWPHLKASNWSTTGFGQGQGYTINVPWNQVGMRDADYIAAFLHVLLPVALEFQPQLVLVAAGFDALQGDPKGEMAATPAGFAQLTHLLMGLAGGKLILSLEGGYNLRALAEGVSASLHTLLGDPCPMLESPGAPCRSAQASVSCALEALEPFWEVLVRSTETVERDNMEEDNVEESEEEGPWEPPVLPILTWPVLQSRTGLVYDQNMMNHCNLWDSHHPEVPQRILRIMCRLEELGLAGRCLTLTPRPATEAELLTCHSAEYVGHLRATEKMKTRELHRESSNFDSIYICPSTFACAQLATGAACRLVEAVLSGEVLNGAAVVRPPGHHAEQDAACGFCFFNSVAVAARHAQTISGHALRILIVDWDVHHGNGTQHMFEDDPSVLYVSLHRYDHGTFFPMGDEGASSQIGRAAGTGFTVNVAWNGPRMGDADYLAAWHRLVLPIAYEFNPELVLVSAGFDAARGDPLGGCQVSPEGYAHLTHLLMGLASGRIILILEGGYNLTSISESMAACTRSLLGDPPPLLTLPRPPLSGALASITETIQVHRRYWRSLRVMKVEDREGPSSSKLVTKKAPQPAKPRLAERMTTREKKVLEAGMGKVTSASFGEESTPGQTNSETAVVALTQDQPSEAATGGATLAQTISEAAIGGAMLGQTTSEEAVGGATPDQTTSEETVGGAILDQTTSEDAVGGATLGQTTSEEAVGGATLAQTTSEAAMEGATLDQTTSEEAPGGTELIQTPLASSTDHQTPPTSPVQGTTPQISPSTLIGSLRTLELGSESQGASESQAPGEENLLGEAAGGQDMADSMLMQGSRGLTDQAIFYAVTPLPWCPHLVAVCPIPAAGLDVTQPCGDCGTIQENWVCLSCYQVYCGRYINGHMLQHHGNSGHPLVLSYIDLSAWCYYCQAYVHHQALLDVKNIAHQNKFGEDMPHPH
Kind of assay: HDAC6 enzyme inhibitory assay (HDAC-Glo I/II Assay kit). Particulars: wells without enzyme = 100% inhibition, 10 µM. The class given is biochemical. The procedure:
Experimental Example 1 HDAC6 Enzyme Inhibitory Assay
HDAC6 enzyme prepared by transducing full length HDAC6 gene into Sf-9 insect cells and purifying by GST affinity column were purchased from SignalChem. Using this enzyme, HDAC6 enzyme inhibitory activity of the compound of the present invention were evaluated. Enzymes were used after preserved at −70° C. HDAC6 enzyme inhibitory activity of the compound of the present invention was measured using HDAC-Glo™ I/II Assay kit (Promega) according to the following experimental method. The test compound diluted with assay buffer (24 mM Tris-HCl (pH 7.5), 1 mM MgCl2, 0.35 mM KCl, 135 mM NaCl, 0.6 mM Glutathione, 0.01% Tween-20) was added to a 384-well plate by each 2 μL. Then, HDAC6 enzyme solution diluted with assay buffer was added thereto by each 4 μL, and the plate was incubated at room temperature for 60 min. After incubated, HDAC substrate-Developer solution prepared according to Promega protocol attached to the assay kit was added to the 384-well plate by each 2 μL, and the enzyme reaction was started. After reacting at room temperature for 20 min, luminescence level was measured using plate reader Envision (PerkinElmer). The inhibitory activity of each compound of Example was calculated as a relative activity value when luminescence level in wells without enzyme is considered as 100% inhibition.
Turning to `O=C1c2cc(-c3nnc(C(F)F)o3)ccc2CN1[C@H](c1ccc(F)cc1)[C@@H](O)c1cccnc1` (single isomer, unassigned) [Example 52, 6-[5-(difluoromethyl)-1,3,4-oxadiazol-2-yl]-2-[(1R*,2S*)-1-(4-fluorophenyl)-2-hydroxy-2-(pyridin-3-yl)ethyl]-2,3-dihydro-1H-isoindol-1-one], the “HDAC6 inhibitory rate (%) (10 μM)” value turned out to be 100%.
On the same count and under the same terms, next, `O=C1c2cc(-c3nnc(C(F)F)o3)ccc2CN1[C@H](c1cnccn1)[C@@H](O)c1ccc(Cl)cc1` (single isomer, unassigned) [Example 97, 2-[(1R*,2S*)-2-(4-chlorophenyl)-2-hydroxy-1-(pyrazin-2-yl)ethyl]-6-[5-(difluoromethyl)-1,3,4-oxadiazol-2-yl]-2,3-dihydro-1H-isoindol-1-one]: 99%.

Staying with this assay, now noted: wells without enzyme = 100% inhibition, read-out: HDAC6 inhibitory rate (%) (10 μM).
As to `O=C1c2cc(-c3nnc(C(F)F)o3)ccc2CN1[C@H](C1CCOCC1)[C@@H](O)c1cccc(Cl)c1` (single isomer, unassigned) [Example 70, 2-[(1R*,2S*)-2-(3-chlorophenyl)-2-hydroxy-1-(oxan-4-yl)ethyl]-6-[5-(difluoromethyl)-1,3,4-oxadiazol-2-yl]-2,3-dihydro-1H-isoindol-1-one], the inhibition at 10 µM stood at 101%.
On to `O=C1c2cc(-c3nnc(C(F)F)o3)ccc2CN1[C@H](C1CCOCC1)[C@H](O)c1ccc(F)cc1` [Example 148, 6-[5-(difluoromethyl)-1,3,4-oxadiazol-2-yl]-2-[(1R,2R)-2-(4-fluorophenyl)-2-hydroxy-1-(oxan-4-yl)ethyl]-2,3-dihydro-1H-isoindol-1-one], for which the inhibition at 10 µM was 101%.
For the compound `O=C1c2cc(-c3nnc(C(F)F)o3)ccc2CN1[C@H](C1CC1)[C@@H](O)c1cccc(Cl)n1` (single isomer, unassigned) [Example 129, 2-[(1R*,2R*)-2-(6-chloropyridin-2-yl)-1-cyclopropyl-2-hydroxyethyl]-6-[5-(difluoromethyl)-1,3,4-oxadiazol-2-yl]-2,3-dihydro-1H-isoindol-1-one], the inhibition at 10 µM came out at 100%.
Consider `O=C1c2cc(-c3nnc(C(F)F)o3)ccc2CN1[C@H](c1ccc(F)c(F)c1)[C@@H](O)c1ccccn1` (single isomer, unassigned) [Example 50, 6-[5-(difluoromethyl)-1,3,4-oxadiazol-2-yl]-2-[(1R*,2R*)-1-(3,4-difluorophenyl)-2-hydroxy-2-(pyridin-2-yl)ethyl]-2,3-dihydro-1H-isoindol-1-one], for which the inhibition at 10 µM was 99%.
Consider `O=C1c2cc(-c3nnc(C(F)F)o3)ccc2CN1[C@H](c1ccc(F)cc1F)[C@@H](O)c1ccc(F)cc1` (single isomer, unassigned) [Example 32, 6-[5-(difluoromethyl)-1,3,4-oxadiazol-2-yl]-2-[(1R*,2S*)-1-(2,4-difluorophenyl)-2-(4-fluorophenyl)-2-hydroxyethyl]-2,3-dihydro-1H-isoindol-1-one], for which the inhibition at 10 µM came out at 99%.
Still for that read-out and setting: next, `O=C1c2cc(-c3nnc(C(F)F)o3)ccc2CN1[C@H](c1ccc(F)cc1)[C@H](O)C1CC1` (racemic) [Example 140, 2-[(1RS,2RS)-2-cyclopropyl-1-(4-fluorophenyl)-2-hydroxyethyl]-6-[5-(difluoromethyl)-1,3,4-oxadiazol-2-yl]-2,3-dihydro-1H-isoindol-1-one]: 98%; `O=C1c2cc(-c3nnc(C(F)F)o3)ccc2CN1[C@@H](c1ccccc1)[C@@H](O)c1ccccc1` [Example 13, 6-[5-(difluoromethyl)-1,3,4-oxadiazol-2-yl]-2-[(1S,2S)-2-hydroxy-1,2-diphenylethyl]-2,3-dihydro-1H-isoindol-1-one]: 99%.
Turning to `O=C1c2cc(-c3nnc(C(F)F)o3)ccc2CN1[C@H](C1CCOCC1)[C@@H](O)c1ccc(Cl)cc1` (single isomer, unassigned) [Example 83, 2-[(1R*,2S*)-2-(4-chlorophenyl)-2-hydroxy-1-(oxan-4-yl)ethyl]-6-[5-(difluoromethyl)-1,3,4-oxadiazol-2-yl]-2,3-dihydro-1H-isoindol-1-one], the inhibition at 10 µM was 101%.
Still for that read-out and setting: next, `O=C1c2cc(-c3nnc(C(F)F)o3)ccc2CN1[C@@H](c1ccc(F)cc1)[C@@H](O)c1ccccc1` (racemic) [Example 138, 6-[5-(difluoromethyl)-1,3,4-oxadiazol-2-yl]-2-[(1SR,2SR)-1-(4-fluorophenyl)-2-hydroxy-2-phenylethyl]-2,3-dihydro-1H-isoindol-1-one]: 99%; `O=C1c2cc(-c3nnc(C(F)F)o3)ccc2CN1[C@H](c1ccc(F)cc1)[C@@H](O)c1ccccc1` (single isomer, unassigned) [Example 45, 6-[5-(difluoromethyl)-1,3,4-oxadiazol-2-yl]-2-[(1R*,2S*)-1-(4-fluorophenyl)-2-hydroxy-2-phenylethyl]-2,3-dihydro-1H-isoindol-1-one]: 100%; `O=C1c2cc(-c3nnc(C(F)F)o3)ccc2CN1[C@H](C1CC1)[C@@H](O)c1ccccn1` [Example 38, 2-[(1R,2R)-1-cyclopropyl-2-hydroxy-2-(pyridin-2-yl)ethyl]-6-[5-(difluoromethyl)-1,3,4-oxadiazol-2-yl]-2,3-dihydro-1H-isoindol-1-one]: 100%.
In the case of `O=C1c2cc(-c3nnc(C(F)F)o3)ccc2CN1[C@H](C1CCC(F)(F)CC1)[C@@H](O)c1ccc(F)nc1` (racemic) [Example 82, 2-[(1RS,2SR)-1-(4,4-difluoro-cyclohexyl)-2-(6-fluoropyridin-3-yl)-2-hydroxyethyl]-6-[5-(difluoromethyl)-1,3,4-oxadiazol-2-yl]-2,3-dihydro-1H-isoindol-1-one], the inhibition at 10 µM worked out at 100%.
For `O=C1c2cc(-c3nnc(C(F)F)o3)ccc2CN1[C@H](c1ncccn1)[C@H](O)c1cccc(F)c1` (racemic) [Example 136, 6-[5-(difluoromethyl)-1,3,4-oxadiazol-2-yl]-2-[(1RS,2RS)-2-(3-fluorophenyl)-2-hydroxy-1-(pyrimidin-2-yl)ethyl]-2,3-dihydro-1H-isoindol-1-one], the inhibition at 10 µM came to 99%.
As to `N#Cc1ccc([C@H]([C@@H](O)c2ccccc2)N2Cc3ccc(-c4nnc(C(F)F)o4)cc3C2=O)cc1` (racemic) [Example 41, 4-[(1RS,2SR)-1-{6-[5-(difluoromethyl)-1,3,4-oxadiazol-2-yl]-1-oxo-1,3-dihydro-2H-isoindol-2-yl}-2-hydroxy-2-phenylethyl]benzonitrile], the inhibition at 10 µM was 100%.
`O=C1c2cc(-c3nnc(C(F)F)o3)ccc2CN1[C@H](c1cccc(F)n1)[C@@H](O)c1ccccn1` (single isomer, unassigned) [Example 75, 6-[5-(difluoromethyl)-1,3,4-oxadiazol-2-yl]-2-[(1R*,2R*)-1-(6-fluoropyridin-2-yl)-2-hydroxy-2-(pyridin-2-yl)ethyl]-2,3-dihydro-1H-isoindol-1-one]: the inhibition at 10 µM was determined as 99%.
`O=C1c2cc(-c3nnc(C(F)F)o3)ccc2CN1[C@H](c1ccccn1)[C@H](O)c1ccccc1` (racemic) [Example 143, 6-[5-(difluoromethyl)-1,3,4-oxadiazol-2-yl]-2-[(1RS,2RS)-2-hydroxy-2-phenyl-1-(pyridin-2-yl)ethyl]-2,3-dihydro-1H-isoindol-1-one]: the inhibition at 10 µM worked out at 100%.
